Consider two compounds from ChEMBL document CHEMBL3044675, “Synthesis and Antifungal Activities of Some Novel Pyrimidine Derivatives” (2011).

The structures appear in SMILES notation.

What all share (assay type): functional
One test has as its system Macrophoma. The test is described as follows: Antifungal activity against Macrophoma kuwatsukai at 50 ug/ml by poisoned food technique.
Another test concerns Thanatephorus cucumeris. The test is described as follows: Antifungal activity against Thanatephorus cucumeris at 50 ug/ml by poisoned food technique.
The next test relates to Sclerotinia sclerotiorum. The test is described as follows: Antifungal activity against Sclerotinia sclerotiorum at 50 ug/ml by poisoned food technique.
The subject of another test is Bipolaris maydis. The test is described as follows: Antifungal activity against Cochliobolus heterostrophus at 50 ug/ml by poisoned food technique.
Another test concerns Fusarium graminearum. The test is described as follows: Antifungal activity against Fusarium graminearum at 50 ug/ml by poisoned food technique.
A further test has as its system Ceratobasidium cereale. The test is described as follows: Antifungal activity against Ceratobasidium cereale at 50 ug/ml by poisoned food technique.
Another test relates to Alternaria mali. The test is described as follows: Antifungal activity against Alternaria mali at 50 ug/ml by poisoned food technique.
The next test has as its system Rhizoctonia solani. The test is described as follows: Antifungal activity against Rhizoctonia solani at 50 ug/ml by poisoned food technique.
Another test has as its system Botrytis cinerea. The test is described as follows: Antifungal activity against Botryotinia fuckeliana at 50 ug/ml by poisoned food technique.
Another test has as its system Alternaria kikuchiana. The test is described as follows: Antifungal activity against Alternaria kikuchiana at 50 ug/ml by poisoned food technique.
Another test concerns Mycosphaerella arachidis. The test is described as follows: Antifungal activity against Mycosphaerella arachidis at 50 ug/ml by poisoned food technique.
For another test, the system named is Phytophthora infestans. The test is described as follows: Antifungal activity against Phytophthora infestans at 50 ug/ml by poisoned food technique.
The next test deals with Alternaria solani. The test is described as follows: Antifungal activity against Alternaria solani at 50 ug/ml by poisoned food technique.
The subject of the next test is Fusarium fujikuroi. The test is described as follows: Antifungal activity against Fusarium fujikuroi at 50 ug/ml by poisoned food technique.

Regarding `Cc1cc(O)no1` [HYMEXAZOL], the Activity with Macrophoma is listed as 50%; in the test on Thanatephorus cucumeris, 78.4%; in the test on Sclerotinia sclerotiorum, 66.7%; with Bipolaris maydis, 34.8%; in the test on Fusarium graminearum it was 33.3%; with Ceratobasidium cereale, 25%. In addition, the Activity with Alternaria mali is listed as 85.7%; in the test with Rhizoctonia solani it was 63.5%; with Botrytis cinerea it was 70.4%; in the test on Alternaria kikuchiana, 81.8%; in the test on Mycosphaerella arachidis, 93.3%; in the test on Phytophthora infestans it was 36.4%. Besides, the figures for the Activity in the test with Alternaria solani and with Fusarium fujikuroi were 88.2% and 40%, respectively.
Take `Cc1cc(C)nc(Nc2ccccc2)n1` [PYRIMETHANIL]: the Activity amounted to 100% in the test on Macrophoma; 98% in the test on Thanatephorus cucumeris; 86.7% with Sclerotinia sclerotiorum; 91.3% in the test on Bipolaris maydis; 44.4% in the test with Fusarium graminearum; 40% in the test with Ceratobasidium cereale. In addition, the Activity turned out to be 21.4% with Alternaria mali; 77.8% with Rhizoctonia solani; 96.3% in the test on Botrytis cinerea; 100% in the test on Alternaria kikuchiana; 100% in the test on Mycosphaerella arachidis; 22.7% in the test on Phytophthora infestans. Further, the values for the Activity in the test with Alternaria solani and with Fusarium fujikuroi were 100% and 20%, respectively.
